In ChEMBL document CHEMBL1201862, “PubChem BioAssay data set” (2004):
Calls of active or inactive are those of the source. For most assays here, no stated cut-off is given here; in the data, actives have a measured EC50 and inactives only a lower limit.

How the values were obtained:
[1] = test system: BJ; experiment: cytotoxicity toward BJ-TERT fibroblasts, dose response, cell-based, RAS-independent, luminescence (AID 1933); format: functional; settings: Homo sapiens
[2] = test system: BJ; experiment: cells; format: functional, cell-based; settings: Homo sapiens
[3] = target: Luciferin 4-monooxygenase (Photinus pyralis, UniProt P08659); experiment: firefly luciferase enzyme inhibitors, dose response, biochemical, luminescence (AID 1891)
[4] = Luminescence Cell-Based Dose Confirmation HTS to Identify Inhibitors of Platelet Dense Granule Release. [Related pubchem assays: 1663 (Primary HTS), 1678 (Summary of Project)]; format: functional
[5] = test system: BJ; experiment: cytotoxicity toward BJ-TERT-LT-ST fibroblasts, dose response, cell-based, RAS-independent, luminescence (AID 1935); format: functional; settings: Homo sapiens;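 further: BJ fibroblasts immortalized with TERT plus LT and ST oncogenes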
[6] = cytotoxicity toward DRD oncogenic fibroblasts, dose response, cell-based, non-viral oncogenic, luminescence (AID 1934); format: functional; settings: Homo sapiens
[7] = inhibitors of firefly luciferase expression or activity, dose response, H4 neuroglioma cells, luminescence (AID 1990); format: functional, cell-based
[8] = Luminescence Cell-Based Dose Response HTS to Identify Inhibitors of 5'UTR Stem-Loop Driven Prion Protein mRNA Translation in H4 Neuroglioblastoma Cells. [Related pubchem assays: 1827 (Project Summary), 1813 (Primary HTS)]; format: functional
[9] = inhibitors of SNCA 5'UTR-driven reporter translation, confirmation, H4 neuroglioma cells, luminescence (AID 1988); format: functional, cell-based
[10] = target: Paired box protein Pax-8 (Homo sapiens, UniProt Q06710); experiment: inhibitors of PAX8-driven TPO luciferase reporter, dose response, RMG-I cells, cherry-pick (AID 687027); format: functional, cell-based;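 further: luciferase reporter driven by Pax8 target thyroperoxidase promoter measured by SteadyGlo luminescence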
[11] = target: Voltage-dependent T-type calcium channel subunit alpha-1H (Homo sapiens, UniProt O95180); format: functional;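 further: channel activity triggered by adding a high calcium stimulation buffer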
[12] = target: Cytochrome P450 2D6 (Homo sapiens, UniProt P10635);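 further: CYP2D6 member of a cytochrome P450 panel assay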
[13] = inhibitors of intracellular T. cruzi replication, confirmation, NIH3T3 host cells, beta-gal luminescence (AID 2044); format: functional, cell-based;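 further: intracellular parasites grown in NIH/3T3 mouse fibroblasts as host cells; luminescent beta-galactosidase reporter signal from transgenic T. cruzi replicating inside host cells; inhibitors lower the luminescence signal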
[14] = cytotoxicity toward NIH3T3 fibroblasts, dose response, counter-screen, cell-based, ATP luminescence, mouse fibroblasts (AID 2010); format: functional;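 further: cells exposed to compound for about 90 hours before reading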
[15] = target: T1, Aminopeptidase N (Plasmodium falciparum FcB1/Columbia, UniProt O96935); experiment: P. falciparum M1AAP inhibitors, biochemical, fluorogenic H-Leu-NHMec substrate, 1536-well (AID 1445); parameters: species or system Plasmodium falciparum 3D7, 3D7
T1 sequence (O96935 whole entry): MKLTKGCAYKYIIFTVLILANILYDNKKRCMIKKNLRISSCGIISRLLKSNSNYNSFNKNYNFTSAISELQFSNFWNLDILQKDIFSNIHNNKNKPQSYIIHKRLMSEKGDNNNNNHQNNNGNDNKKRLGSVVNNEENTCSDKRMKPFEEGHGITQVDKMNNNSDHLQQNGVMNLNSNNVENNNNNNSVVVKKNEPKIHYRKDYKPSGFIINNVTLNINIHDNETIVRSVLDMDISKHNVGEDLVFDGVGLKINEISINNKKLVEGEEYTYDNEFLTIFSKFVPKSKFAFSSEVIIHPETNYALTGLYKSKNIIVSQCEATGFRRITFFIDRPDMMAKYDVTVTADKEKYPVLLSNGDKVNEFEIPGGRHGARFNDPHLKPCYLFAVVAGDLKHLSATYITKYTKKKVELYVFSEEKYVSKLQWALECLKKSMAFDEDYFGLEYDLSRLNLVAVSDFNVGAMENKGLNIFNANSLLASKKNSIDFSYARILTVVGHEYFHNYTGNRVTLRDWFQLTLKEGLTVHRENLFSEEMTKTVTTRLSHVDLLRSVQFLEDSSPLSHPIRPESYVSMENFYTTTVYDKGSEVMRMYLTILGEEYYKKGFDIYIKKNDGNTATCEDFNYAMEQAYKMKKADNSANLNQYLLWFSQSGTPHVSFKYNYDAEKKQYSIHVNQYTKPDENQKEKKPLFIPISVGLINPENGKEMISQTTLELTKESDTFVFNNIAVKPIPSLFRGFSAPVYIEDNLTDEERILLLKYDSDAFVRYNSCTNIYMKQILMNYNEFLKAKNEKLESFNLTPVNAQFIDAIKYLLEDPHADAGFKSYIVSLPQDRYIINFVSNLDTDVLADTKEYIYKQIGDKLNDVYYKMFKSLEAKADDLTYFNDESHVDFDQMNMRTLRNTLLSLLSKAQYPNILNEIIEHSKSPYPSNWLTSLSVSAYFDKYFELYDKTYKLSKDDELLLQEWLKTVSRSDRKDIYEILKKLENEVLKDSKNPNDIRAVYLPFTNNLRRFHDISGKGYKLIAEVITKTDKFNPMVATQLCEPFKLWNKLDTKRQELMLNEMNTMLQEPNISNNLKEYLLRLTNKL

[16] = microbe, parasite or virus in culture; format: functional; settings: Mycobacterium tuberculosis
[17] = target: T2, Calpain-2 catalytic subunit (Sus scrofa, UniProt P43367); experiment: pig calpain II inhibitor potency, dose response, biochemical, fluorogenic peptide substrate (AID 1420); format: functional
T2 sequence (P43367 whole entry): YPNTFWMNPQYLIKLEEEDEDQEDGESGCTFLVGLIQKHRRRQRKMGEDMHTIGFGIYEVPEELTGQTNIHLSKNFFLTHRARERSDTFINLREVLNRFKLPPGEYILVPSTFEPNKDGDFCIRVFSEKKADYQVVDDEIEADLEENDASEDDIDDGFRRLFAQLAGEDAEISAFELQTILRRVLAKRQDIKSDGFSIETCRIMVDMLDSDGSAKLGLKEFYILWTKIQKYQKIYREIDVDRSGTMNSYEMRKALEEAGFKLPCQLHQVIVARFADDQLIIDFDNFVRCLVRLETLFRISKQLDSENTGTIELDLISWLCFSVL

[18] = target: T3, Cytochrome P450 1A2 (Homo sapiens, UniProt P05177);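 further: PubChem cytochrome P450 panel assay, CYP1A2 panel member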
T3 sequence (P05177 whole entry): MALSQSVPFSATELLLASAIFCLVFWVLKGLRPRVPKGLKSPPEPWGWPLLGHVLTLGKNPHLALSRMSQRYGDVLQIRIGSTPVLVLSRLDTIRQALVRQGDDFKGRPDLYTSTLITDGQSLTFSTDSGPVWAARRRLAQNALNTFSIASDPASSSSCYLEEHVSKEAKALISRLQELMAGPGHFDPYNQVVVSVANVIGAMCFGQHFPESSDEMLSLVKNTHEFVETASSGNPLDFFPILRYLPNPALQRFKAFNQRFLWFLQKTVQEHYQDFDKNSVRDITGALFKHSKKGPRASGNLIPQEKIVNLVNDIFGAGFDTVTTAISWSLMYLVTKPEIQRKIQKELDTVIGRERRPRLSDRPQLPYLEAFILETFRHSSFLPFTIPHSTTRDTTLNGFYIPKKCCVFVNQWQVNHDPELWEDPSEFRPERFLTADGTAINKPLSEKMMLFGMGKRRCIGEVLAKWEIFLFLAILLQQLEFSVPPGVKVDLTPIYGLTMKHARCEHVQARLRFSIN

[19] = NIH-3T3 fibroblast cytotoxicity, dose response, cytotoxicity control, cell-based, fluorescence, Alamar Blue, secondary assay (AID 2327); format: functional;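 further: NIH-3T3 mouse fibroblasts cultured with fluconazole at 8 µg/mL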
[20] = C. albicans growth with fluconazole, confirmation, fluorescence, retest (AID 2467); format: functional, cell-based
[21] = target: T4, Mannose-6-phosphate isomerase (Homo sapiens, UniProt P34949); experiment: human PMI inhibitors, high substrate, primary screen, biochemical, fluorescence intensity, high mannose 6-phosphate (AID 1220)
T4 sequence (P34949 whole entry): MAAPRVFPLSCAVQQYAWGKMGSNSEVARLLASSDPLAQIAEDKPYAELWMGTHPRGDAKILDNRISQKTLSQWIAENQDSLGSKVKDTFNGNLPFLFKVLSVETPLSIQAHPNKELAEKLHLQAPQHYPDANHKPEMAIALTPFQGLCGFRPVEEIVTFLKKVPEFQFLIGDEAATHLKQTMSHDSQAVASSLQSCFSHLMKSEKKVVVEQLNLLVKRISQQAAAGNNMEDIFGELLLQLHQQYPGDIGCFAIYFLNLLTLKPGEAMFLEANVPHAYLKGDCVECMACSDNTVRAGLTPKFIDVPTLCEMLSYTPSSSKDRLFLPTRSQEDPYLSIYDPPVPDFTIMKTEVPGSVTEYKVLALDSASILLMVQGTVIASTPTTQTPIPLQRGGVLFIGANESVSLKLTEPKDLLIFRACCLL

[22] = test system: H9c2; experiment: cells; format: functional, cell-based; settings: Rattus norvegicus, H9c2, Myocardium;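 further: confirmatory concentration-response retest of ultra-high-throughput screening hits for modulation of myocardial damage; cell death induced by hydrogen peroxide oxidative stress; compound pretreatment for 60 min then peroxide exposure for 2 h; potency is for protecting the cells against peroxide damage rather than for killing them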
[23] = target: T5, Fatty acid synthase (Homo sapiens, UniProt P49327); experiment: FAS thioesterase domain inhibitors, dose response, biochemical, endpoint fluorescence intensity, uHTS hits (AID 624327); format: functional;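 further: fluorescence from hydrolysis of an O-methyl fluorescein acyl ester substrate by the enzyme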
[24] = target: T5, Fatty acid synthase; experiment: FAS thioesterase domain inhibitors, dose response, biochemical, kinetic fluorescence intensity (AID 624326); format: functional;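 further: rate of fluorescence rise from hydrolysis of a fluorogenic O-methyl fluorescein ester substrate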

T5 sequence (P49327 whole entry, the tested form may be a part): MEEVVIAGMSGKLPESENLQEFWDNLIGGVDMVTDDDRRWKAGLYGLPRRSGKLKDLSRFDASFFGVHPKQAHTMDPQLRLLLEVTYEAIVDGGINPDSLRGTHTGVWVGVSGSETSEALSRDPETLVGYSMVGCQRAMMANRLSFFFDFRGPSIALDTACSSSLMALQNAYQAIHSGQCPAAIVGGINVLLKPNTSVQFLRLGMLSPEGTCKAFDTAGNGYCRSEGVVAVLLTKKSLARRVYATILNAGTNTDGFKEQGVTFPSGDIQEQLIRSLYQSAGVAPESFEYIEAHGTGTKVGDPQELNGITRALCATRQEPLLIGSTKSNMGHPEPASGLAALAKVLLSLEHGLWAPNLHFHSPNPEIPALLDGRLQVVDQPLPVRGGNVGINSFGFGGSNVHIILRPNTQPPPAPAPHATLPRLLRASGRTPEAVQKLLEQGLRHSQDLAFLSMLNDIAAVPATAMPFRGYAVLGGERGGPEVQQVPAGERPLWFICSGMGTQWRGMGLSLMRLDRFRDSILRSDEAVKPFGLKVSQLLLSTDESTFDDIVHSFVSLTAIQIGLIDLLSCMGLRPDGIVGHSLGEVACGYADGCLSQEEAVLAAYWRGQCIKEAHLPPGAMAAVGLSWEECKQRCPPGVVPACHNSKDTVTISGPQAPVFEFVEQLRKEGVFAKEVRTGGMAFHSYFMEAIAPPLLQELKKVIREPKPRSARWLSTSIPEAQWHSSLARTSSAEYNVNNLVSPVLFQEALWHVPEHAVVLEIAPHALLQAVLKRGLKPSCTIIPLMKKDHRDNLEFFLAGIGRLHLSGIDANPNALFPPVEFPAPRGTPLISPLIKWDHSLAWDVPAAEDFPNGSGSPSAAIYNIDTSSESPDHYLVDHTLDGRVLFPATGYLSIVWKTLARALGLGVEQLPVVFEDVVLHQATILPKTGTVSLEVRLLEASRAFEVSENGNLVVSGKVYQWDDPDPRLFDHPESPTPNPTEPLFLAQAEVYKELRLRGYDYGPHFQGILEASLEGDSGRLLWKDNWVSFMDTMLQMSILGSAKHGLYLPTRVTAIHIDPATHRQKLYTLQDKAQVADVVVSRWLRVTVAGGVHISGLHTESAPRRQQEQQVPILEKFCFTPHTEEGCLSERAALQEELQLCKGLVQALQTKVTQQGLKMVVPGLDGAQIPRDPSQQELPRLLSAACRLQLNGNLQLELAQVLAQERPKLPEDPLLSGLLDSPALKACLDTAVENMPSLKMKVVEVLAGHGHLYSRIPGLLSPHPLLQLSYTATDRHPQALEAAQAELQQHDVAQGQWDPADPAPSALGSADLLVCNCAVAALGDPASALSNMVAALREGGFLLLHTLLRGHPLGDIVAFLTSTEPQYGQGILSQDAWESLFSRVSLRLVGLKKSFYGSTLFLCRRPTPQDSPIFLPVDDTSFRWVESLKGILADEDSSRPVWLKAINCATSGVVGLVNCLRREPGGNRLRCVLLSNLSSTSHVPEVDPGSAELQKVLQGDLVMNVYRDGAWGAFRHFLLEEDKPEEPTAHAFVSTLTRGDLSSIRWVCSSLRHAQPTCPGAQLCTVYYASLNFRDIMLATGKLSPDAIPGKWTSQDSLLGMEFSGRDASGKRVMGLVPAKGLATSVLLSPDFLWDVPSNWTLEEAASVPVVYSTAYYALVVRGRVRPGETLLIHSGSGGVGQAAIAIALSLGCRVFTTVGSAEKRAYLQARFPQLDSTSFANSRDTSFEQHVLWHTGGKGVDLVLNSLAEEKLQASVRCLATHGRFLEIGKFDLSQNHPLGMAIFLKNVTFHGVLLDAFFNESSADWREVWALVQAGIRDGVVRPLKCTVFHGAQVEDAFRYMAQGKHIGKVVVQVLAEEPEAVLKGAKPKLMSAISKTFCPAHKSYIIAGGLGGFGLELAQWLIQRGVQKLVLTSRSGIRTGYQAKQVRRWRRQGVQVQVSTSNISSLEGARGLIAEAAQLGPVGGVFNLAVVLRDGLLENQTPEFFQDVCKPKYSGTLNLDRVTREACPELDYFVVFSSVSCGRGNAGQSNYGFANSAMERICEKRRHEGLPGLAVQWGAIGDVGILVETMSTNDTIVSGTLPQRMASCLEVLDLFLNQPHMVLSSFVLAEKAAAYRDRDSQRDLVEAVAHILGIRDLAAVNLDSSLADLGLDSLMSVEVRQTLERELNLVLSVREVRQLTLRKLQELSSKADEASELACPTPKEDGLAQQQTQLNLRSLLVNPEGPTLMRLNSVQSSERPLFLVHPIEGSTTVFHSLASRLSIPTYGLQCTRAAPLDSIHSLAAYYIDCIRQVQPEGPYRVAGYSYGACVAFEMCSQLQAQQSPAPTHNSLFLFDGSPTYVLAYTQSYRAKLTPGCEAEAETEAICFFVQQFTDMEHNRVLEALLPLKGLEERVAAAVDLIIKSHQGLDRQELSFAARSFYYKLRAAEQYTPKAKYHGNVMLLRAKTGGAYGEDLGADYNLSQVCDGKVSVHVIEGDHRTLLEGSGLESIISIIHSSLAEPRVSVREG
Voltage-dependent T-type calcium channel subunit alpha-1H, sequence (O95180 whole entry): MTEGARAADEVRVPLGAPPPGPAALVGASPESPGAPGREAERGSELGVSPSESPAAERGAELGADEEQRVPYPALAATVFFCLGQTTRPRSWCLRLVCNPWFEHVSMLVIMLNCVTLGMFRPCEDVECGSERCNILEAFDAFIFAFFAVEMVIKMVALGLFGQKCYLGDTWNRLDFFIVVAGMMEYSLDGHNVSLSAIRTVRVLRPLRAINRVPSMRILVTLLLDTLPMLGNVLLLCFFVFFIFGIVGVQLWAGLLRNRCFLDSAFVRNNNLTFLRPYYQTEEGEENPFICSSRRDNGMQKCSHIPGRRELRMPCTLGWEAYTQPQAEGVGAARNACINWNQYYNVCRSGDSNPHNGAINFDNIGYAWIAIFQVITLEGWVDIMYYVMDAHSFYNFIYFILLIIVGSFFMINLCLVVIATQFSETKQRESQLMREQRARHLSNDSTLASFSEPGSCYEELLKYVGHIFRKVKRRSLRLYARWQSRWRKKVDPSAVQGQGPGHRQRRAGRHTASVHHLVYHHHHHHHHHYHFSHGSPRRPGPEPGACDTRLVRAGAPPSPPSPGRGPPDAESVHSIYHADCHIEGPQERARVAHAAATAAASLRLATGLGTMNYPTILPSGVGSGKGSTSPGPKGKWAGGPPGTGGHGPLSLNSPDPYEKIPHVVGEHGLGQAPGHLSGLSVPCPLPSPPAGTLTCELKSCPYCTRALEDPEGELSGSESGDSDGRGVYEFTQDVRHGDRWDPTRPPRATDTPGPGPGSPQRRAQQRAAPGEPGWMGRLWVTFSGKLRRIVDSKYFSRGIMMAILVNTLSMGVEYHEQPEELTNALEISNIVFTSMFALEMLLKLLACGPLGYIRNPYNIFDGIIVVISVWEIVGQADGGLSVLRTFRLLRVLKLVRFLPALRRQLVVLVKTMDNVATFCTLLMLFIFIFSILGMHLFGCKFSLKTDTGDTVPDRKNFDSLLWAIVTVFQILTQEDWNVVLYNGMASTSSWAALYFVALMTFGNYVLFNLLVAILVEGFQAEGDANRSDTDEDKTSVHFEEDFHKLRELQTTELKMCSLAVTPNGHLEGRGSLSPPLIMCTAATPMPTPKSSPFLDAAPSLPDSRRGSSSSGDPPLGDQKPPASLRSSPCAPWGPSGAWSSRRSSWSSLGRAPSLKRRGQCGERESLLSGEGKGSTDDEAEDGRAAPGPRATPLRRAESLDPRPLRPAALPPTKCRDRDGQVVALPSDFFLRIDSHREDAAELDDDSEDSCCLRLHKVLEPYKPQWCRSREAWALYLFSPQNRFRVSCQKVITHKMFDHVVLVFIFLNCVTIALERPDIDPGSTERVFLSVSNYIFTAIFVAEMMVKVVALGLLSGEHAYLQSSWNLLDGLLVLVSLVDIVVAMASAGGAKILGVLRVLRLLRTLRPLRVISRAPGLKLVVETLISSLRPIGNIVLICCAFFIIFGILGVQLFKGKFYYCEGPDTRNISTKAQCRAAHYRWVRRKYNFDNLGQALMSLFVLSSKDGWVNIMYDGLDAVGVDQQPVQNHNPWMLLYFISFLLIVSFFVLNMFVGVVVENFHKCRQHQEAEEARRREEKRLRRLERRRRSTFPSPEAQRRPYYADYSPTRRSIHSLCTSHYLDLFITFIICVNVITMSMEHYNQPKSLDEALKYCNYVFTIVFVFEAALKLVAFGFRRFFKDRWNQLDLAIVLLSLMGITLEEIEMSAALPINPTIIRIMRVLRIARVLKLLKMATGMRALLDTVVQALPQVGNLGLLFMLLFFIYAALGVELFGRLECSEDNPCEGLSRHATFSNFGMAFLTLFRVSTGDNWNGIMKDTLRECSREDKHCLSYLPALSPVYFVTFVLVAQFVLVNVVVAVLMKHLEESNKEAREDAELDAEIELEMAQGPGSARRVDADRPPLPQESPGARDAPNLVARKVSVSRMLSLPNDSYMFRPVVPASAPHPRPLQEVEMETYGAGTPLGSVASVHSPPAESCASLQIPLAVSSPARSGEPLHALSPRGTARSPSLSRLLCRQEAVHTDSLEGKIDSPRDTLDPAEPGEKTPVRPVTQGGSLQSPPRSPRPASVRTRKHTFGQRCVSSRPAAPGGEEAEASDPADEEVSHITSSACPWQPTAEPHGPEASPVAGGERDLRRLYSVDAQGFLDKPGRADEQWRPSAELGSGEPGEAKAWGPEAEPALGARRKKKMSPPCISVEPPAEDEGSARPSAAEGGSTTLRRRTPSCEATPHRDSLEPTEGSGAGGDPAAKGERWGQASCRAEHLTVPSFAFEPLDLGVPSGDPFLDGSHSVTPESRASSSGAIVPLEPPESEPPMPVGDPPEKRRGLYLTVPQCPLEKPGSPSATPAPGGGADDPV

OC[C@H]1O[C@@H](n2cnc3c(NCCc4ccccc4)ncnc32)[C@H](O)[C@@H]1O
EC50 [1]: 15.2 µM (inconclusive)
EC50 [2]: 35.4 µM (active)
EC50 [3]: > 112 µM (not active)
EC50 [4]: 0.893 µM (active)
EC50 [5]: > 150 µM (not active)
EC50 [6]: 18.9 µM (active)

O=C(NCCN1C(=O)S/C(=C\c2ccc(OC(F)F)cc2)C1=O)c1cnccn1
EC50 [7]: > 120 µM (not active)
EC50 [8]: 26.3 µM (active)
EC50 [9]: > 120 µM (not active)
AC50 [10]: 15.5 µM (active)

COc1cccc(N(C(=O)Cn2nnc(-c3ccc(C)cc3)n2)C(C(=O)NC(C)(C)C)c2c[nH]c3ccccc23)c1 (stereo not given)
EC50 [11]: 8.67 µM (active)
AC50 [12]: 20 µM (inconclusive)

CCOc1ccccc1CNC(=O)C1CCN(c2nnc(C)c3c(C)n(-c4ccc(C)cc4)nc23)CC1
EC50 [7]: 8.11 µM (active)
EC50 [8]: 12.6 µM (active)
EC50 [9]: 9.02 µM (active)
EC50 [13]: 1.45 µM (active)
EC50 [14]: 9.4 µM (active)

Cc1ccc(-c2csc3ncnc(SCc4ccc(C(=O)O)cc4)c23)cc1
IC50 [15]: 44.6 µM (active)

O=C(C1=C[C@@H](c2csc3ccccc23)C[C@@H](OCCCCO)O1)N1CCN(Cc2ccc3c(c2)OCO3)CC1
CC50 [16]: > 40 µM (active)

C=CCN(CC=C)Cc1nc(N)nc(Nc2ccccc2C)n1
IC50 [17]: < 0.4 µM (not active)

COc1ccc(CNc2nc3ccccc3n2Cc2ccccc2)cc1OC
EC50 [11]: 7.3 µM (active)
AC50 [18]: 22.4 µM (inconclusive)

CC1(C)CC(=O)c2c(oc3ccc(NS(=O)(=O)c4ccc(C(=O)O)cc4)cc23)C1
IC50 [15]: 26 µM (active)

Cc1ccc(NCc2ccc(O)c3ncccc23)cc1C
EC50 [19]: > 160 µM (inconclusive)
EC50 [20]: > 38 µM (not active)
CC50 [16]: 33.9 µM (active)
IC50 [21]: > 50 µM (not active)
IC50 [22]: > 79 µM (inactive)

CS(=O)(=O)N1CCc2cc(-c3csc(NC(=O)Cc4ccccc4)n3)ccc21
EC50 [7]: > 120 µM (not active)
EC50 [8]: 20.9 µM (active)
EC50 [9]: > 120 µM (not active)
EC50 [13]: 1.08 µM (active)
EC50 [14]: > 60 µM (not active)
IC50 [23]: 8.79 µM (active)
IC50 [24]: 5.12 µM (active)
